Reference: the NIST ThermoML archive (doi:10.1021/je5007532)

How the values were obtained:
[1] = for viscosity: 100 kPa, Falling or rolling sphere viscometry; for viscosity / speed of sound / mass density: Liquid; for speed of sound / mass density: 101 kPa; for speed of sound: Sing-around technique in a fixed-path interferometer; for mass density: Vibrating tube method; for surface tension liquid-gas: 294.4 K, Pendant drop shape
[2] = xn = mol fraction of the nth substance listed; details: x2 = 0; for viscosity: 100 kPa, Falling or rolling sphere viscometry; for viscosity / speed of sound / mass density: Liquid; for speed of sound / mass density: 101 kPa; for speed of sound: Sing-around technique in a fixed-path interferometer; for mass density: Vibrating tube method

CC(C)CC(C)(C)C [2,2,4-trimethylpentane]
[1]
Details	mass density [kg/m3]	speed of sound [m/s]	viscosity [mPa·s]
293.15 K	691.84	1103.2	0.501
298.15 K	687.7	1082	0.473
303.15 K	683.59	1061.4	0.447
308.15 K	679.4	1040.4	0.423
313.15 K	675.23	1020	–
318.15 K	670.98	999.3	0.38
323.15 K	666.75	979.2	0.361
328.15 K	662.44	958.7	0.343
333.15 K	658.16	938.6	0.326
338.15 K	653.8	918.7	–
343.15 K	649.4	899	–

Details	surface tension liquid-gas [mN/m]
[1]	18.7

CCCCCCC [heptane]
[1]
Details	mass density [kg/m3]	speed of sound [m/s]	viscosity [mPa·s]
293.15 K	683.85	1151.7	0.41
298.15 K	679.61	1130.1	0.389
303.15 K	675.35	1109.1	0.368
308.15 K	671.05	1087.5	0.349
313.15 K	666.73	1066.6	–
318.15 K	662.38	1045.4	0.315
323.15 K	657.99	1024.7	0.3
328.15 K	653.57	1003.6	0.284
333.15 K	649.11	983	0.271
338.15 K	644.6	962.3	–

Details	surface tension liquid-gas [mN/m]
[1]	20.3

CCCCCCC [heptane] + CC(C)CC(C)(C)C
[2]
Details	mass density [kg/m3]	speed of sound [m/s]	viscosity [mPa·s]
293.15 K	683.85	1151.7	0.41
298.15 K	679.61	1130.1	0.389
303.15 K	675.35	1109.1	0.368
308.15 K	671.05	1087.5	0.349
313.15 K	666.73	1066.6	–
318.15 K	662.38	1045.4	0.315
323.15 K	657.99	1024.7	0.3
328.15 K	653.57	1003.6	0.284
333.15 K	649.11	983	0.271
338.15 K	644.6	962.3	–

Details	surface tension liquid-gas [mN/m]
[2], 294.4 K, Pendant drop shape	20.3
